Literature values, collected in patent US12396967B2 (Pulmonem Inc., priority 2020, dated 2025).

System: human bronchial epithelial cells stimulated with lipopolysaccharide

Nc1ccc(S(=O)(=O)c2ccc(N)cc2)cc1 [Dapsone, 4,4′-diamino-diphenyl sulfone]
IL-8 secretion: inhibits IL-8 secretion
